Experimental data as given in PubChem BioAssay AID1963834 (Molecular Pharmacology Branch, DTP, NCI, 2024).

Test system: 873145-292-R-J1-PDC complex spheroid viability
Experiment: Anticancer human tumor 873145-292-R-J1-PDC patient-derived renal clear cell carcinoma cell line growth inhibition [POLQ]
Settings: for IC50: curve of first compound; for viability, T/C: stronger effect = lower value
Method in brief: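 PDC + HUVEC + MSC complex spheroids; POLQ inhibitors ± partner drugs; top conc. at/near clinical Cmax, else 10 microM (SN-38 1 microM), half-log dilutions; 37 degrees C, 5% CO2.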

[1] = second compound 0.0316 µM, first compound 0.0316 µM
[2] = second compound 0.0316 µM, first compound 0.1 µM
[3] = second compound 0.0316 µM, first compound 0.316 µM
[4] = second compound 0.0316 µM, first compound 1 µM
[5] = second compound 0.1 µM, first compound 0.0316 µM
[6] = second compound 0.1 µM, first compound 0.1 µM
[7] = second compound 0.1 µM, first compound 0.316 µM
[8] = second compound 0.1 µM, first compound 1 µM
[9] = second compound 0.316 µM, first compound 0.0316 µM
[10] = second compound 0.316 µM, first compound 0.1 µM
[11] = second compound 0.316 µM, first compound 0.316 µM
[12] = second compound 0.316 µM, first compound 1 µM
[13] = second compound 1 µM, first compound 0.0316 µM
[14] = second compound 1 µM, first compound 0.1 µM
[15] = second compound 1 µM, first compound 0.316 µM
[16] = second compound 1 µM, first compound 1 µM
[17] = second compound 3.16 µM, first compound 0.0316 µM
[18] = second compound 3.16 µM, first compound 0.1 µM
[19] = second compound 3.16 µM, first compound 0.316 µM
[20] = second compound 3.16 µM, first compound 1 µM
[21] = second compound 10 µM, first compound 0.0316 µM
[22] = second compound 10 µM, first compound 0.1 µM
[23] = second compound 10 µM, first compound 0.316 µM
[24] = second compound 10 µM, first compound 1 µM
[25] = second compound 0.0316 µM, first compound 3.16 µM
[26] = second compound 0.0316 µM, first compound 10 µM
[27] = second compound 0.1 µM, first compound 3.16 µM
[28] = second compound 0.1 µM, first compound 10 µM
[29] = second compound 0.316 µM, first compound 3.16 µM
[30] = second compound 0.316 µM, first compound 10 µM
[31] = second compound 1 µM, first compound 3.16 µM
[32] = second compound 1 µM, first compound 10 µM
[33] = second compound 3.16 µM, first compound 3.16 µM
[34] = second compound 3.16 µM, first compound 10 µM
[35] = second compound 10 µM, first compound 3.16 µM
[36] = second compound 10 µM, first compound 10 µM
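Note: spheroids exposed to compounds for 7 days before viability readout.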
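Throughout, for viability, T/C: luminescence signal used as surrogate for viable cell content; 100% = DMSO vehicle control viability.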

C=CCn1c(=O)c2cnc(Nc3ccc(N4CCN(C)CC4)cc3)nc2n1-c1cccc(C(C)(C)O)n1 + Nc1ccc(C#CCN(C(=O)Cc2ncc(C(F)(F)F)cc2C(F)(F)F)c2ccc(F)cc2)nn1
IC50 (second compound 0.0316 µM): > 1 µM
IC50 (second compound 0.1 µM): > 1 µM
IC50 (second compound 0.316 µM): > 1 µM
IC50 (second compound 1 µM): > 1 µM
IC50 (second compound 3.16 µM): > 1 µM
IC50 (second compound 10 µM): > 1 µM
viability, T/C (second compound 0.0316 µM, first compound 0.00316 µM): 93.8%
viability, T/C (second compound 0.0316 µM, first compound 0.01 µM): 110%
viability, T/C [1]: 92.7%
viability, T/C [2]: 86.6%
viability, T/C [3]: 78.5%
viability, T/C [4]: 77.3%
viability, T/C (second compound 0.1 µM, first compound 0.00316 µM): 106%
viability, T/C (second compound 0.1 µM, first compound 0.01 µM): 105%
viability, T/C [5]: 86.4%
viability, T/C [6]: 100%
viability, T/C [7]: 89.2%
viability, T/C [8]: 74.1%
viability, T/C (second compound 0.316 µM, first compound 0.00316 µM): 91.8%
viability, T/C (second compound 0.316 µM, first compound 0.01 µM): 99.1%
viability, T/C [9]: 79.5%
viability, T/C [10]: 86.4%
viability, T/C [11]: 87.8%
viability, T/C [12]: 72.9%
viability, T/C (second compound 1 µM, first compound 0.00316 µM): 93.5%
viability, T/C (second compound 1 µM, first compound 0.01 µM): 95.3%
viability, T/C [13]: 94.1%
viability, T/C [14]: 88.5%
viability, T/C [15]: 90.6%
viability, T/C [16]: 69.3%
viability, T/C (second compound 3.16 µM, first compound 0.00316 µM): 105%
viability, T/C (second compound 3.16 µM, first compound 0.01 µM): 103%
viability, T/C [17]: 88.4%
viability, T/C [18]: 90.2%
viability, T/C [19]: 81.4%
viability, T/C [20]: 79.8%
viability, T/C (second compound 10 µM, first compound 0.00316 µM): 110%
viability, T/C (second compound 10 µM, first compound 0.01 µM): 106%
viability, T/C [21]: 108%
viability, T/C [22]: 101%
viability, T/C [23]: 77.9%
viability, T/C [24]: 77.8%

CNCc1ccc(-c2[nH]c3cc(F)cc4c3c2CCNC4=O)cc1 + Nc1ccc(C#CCN(C(=O)Cc2ncc(C(F)(F)F)cc2C(F)(F)F)c2ccc(F)cc2)nn1
IC50 (second compound 0.0316 µM): > 10 µM
IC50 (second compound 0.1 µM): > 10 µM
IC50 (second compound 0.316 µM): > 10 µM
IC50 (second compound 1 µM): > 10 µM
IC50 (second compound 3.16 µM): > 10 µM
IC50 (second compound 10 µM): > 10 µM
viability, T/C [1]: 99%
viability, T/C [2]: 92.8%
viability, T/C [3]: 89.1%
viability, T/C [4]: 87.7%
viability, T/C [25]: 95.5%
viability, T/C [26]: 103%
viability, T/C [5]: 107%
viability, T/C [6]: 105%
viability, T/C [7]: 83.5%
viability, T/C [8]: 88.9%
viability, T/C [27]: 88.3%
viability, T/C [28]: 92.8%
viability, T/C [9]: 97.3%
viability, T/C [10]: 95.8%
viability, T/C [11]: 88.6%
viability, T/C [12]: 92.4%
viability, T/C [29]: 91.6%
viability, T/C [30]: 89.2%
viability, T/C [13]: 102%
viability, T/C [14]: 92.9%
viability, T/C [15]: 102%
viability, T/C [16]: 94.7%
viability, T/C [31]: 103%
viability, T/C [32]: 90.4%
viability, T/C [17]: 100%
viability, T/C [18]: 104%
viability, T/C [19]: 108%
viability, T/C [20]: 95.4%
viability, T/C [33]: 97.5%
viability, T/C [34]: 100%
viability, T/C [21]: 109%
viability, T/C [22]: 104%
viability, T/C [23]: 103%
viability, T/C [24]: 100%
viability, T/C [35]: 99.4%
viability, T/C [36]: 105%

Nc1ccn(C2OC(CO)C(O)C2(F)F)c(=O)n1 (stereo not drawn) + Nc1ccc(C#CCN(C(=O)Cc2ncc(C(F)(F)F)cc2C(F)(F)F)c2ccc(F)cc2)nn1
IC50 (second compound 0.0316 µM): > 10 µM
IC50 (second compound 0.1 µM): > 10 µM
IC50 (second compound 0.316 µM): 10 µM
IC50 (second compound 1 µM): > 10 µM
IC50 (second compound 3.16 µM): > 10 µM
IC50 (second compound 10 µM): > 10 µM
viability, T/C [1]: 70.6%
viability, T/C [2]: 72.4%
viability, T/C [3]: 61%
viability, T/C [4]: 56.2%
viability, T/C [25]: 58.5%
viability, T/C [26]: 55.8%
viability, T/C [5]: 71.6%
viability, T/C [6]: 70.2%
viability, T/C [7]: 57.3%
viability, T/C [8]: 54.5%
viability, T/C [27]: 49.5%
viability, T/C [28]: 51.7%
viability, T/C [9]: 73.8%
viability, T/C [10]: 80.5%
viability, T/C [11]: 52.6%
viability, T/C [12]: 54.8%
viability, T/C [29]: 59.1%
viability, T/C [30]: 53.4%
viability, T/C [13]: 67.7%
viability, T/C [14]: 65.8%
viability, T/C [15]: 61.8%
viability, T/C [16]: 70.3%
viability, T/C [31]: 55.6%
viability, T/C [32]: 51.7%
viability, T/C [17]: 72.9%
viability, T/C [18]: 66.6%
viability, T/C [19]: 73.7%
viability, T/C [20]: 64.2%
viability, T/C [33]: 54.5%
viability, T/C [34]: 63%
viability, T/C [21]: 82.7%
viability, T/C [22]: 67.6%
viability, T/C [23]: 61.4%
viability, T/C [24]: 62.1%
viability, T/C [35]: 59.4%
viability, T/C [36]: 67.2%

O=C(c1cc(Cc2n[nH]c(=O)c3ccccc23)ccc1F)N1CCN(C(=O)C2CC2)CC1 + Nc1ccc(C#CCN(C(=O)Cc2ncc(C(F)(F)F)cc2C(F)(F)F)c2ccc(F)cc2)nn1
IC50 (second compound 0.0316 µM): > 10 µM
IC50 (second compound 0.1 µM): > 10 µM
IC50 (second compound 0.316 µM): > 10 µM
IC50 (second compound 1 µM): > 10 µM
IC50 (second compound 3.16 µM): > 10 µM
IC50 (second compound 10 µM): > 10 µM
viability, T/C [1]: 98.5%
viability, T/C [2]: 110%
viability, T/C [3]: 101%
viability, T/C [4]: 106%
viability, T/C [25]: 107%
viability, T/C [26]: 108%
viability, T/C [5]: 112%
viability, T/C [6]: 118%
viability, T/C [7]: 103%
viability, T/C [8]: 102%
viability, T/C [27]: 98.1%
viability, T/C [28]: 96.2%
viability, T/C [9]: 96.4%
viability, T/C [10]: 114%
viability, T/C [11]: 114%
viability, T/C [12]: 105%
viability, T/C [29]: 93.8%
viability, T/C [30]: 103%
viability, T/C [13]: 98.4%
viability, T/C [14]: 105%
viability, T/C [15]: 114%
viability, T/C [16]: 117%
viability, T/C [31]: 104%
viability, T/C [32]: 88.6%
viability, T/C [17]: 104%
viability, T/C [18]: 114%
viability, T/C [19]: 115%
viability, T/C [20]: 110%
viability, T/C [33]: 96.2%
viability, T/C [34]: 104%
viability, T/C [21]: 101%
viability, T/C [22]: 105%
viability, T/C [23]: 106%
viability, T/C [24]: 109%
viability, T/C [35]: 100%
viability, T/C [36]: 101%
